Data as given in patent US20230181464A1, “COMPOSITIONS FOR DELIVERY OF BIOACTIVE AGENTS INTO HAIR FOLLICLES” (FOLLICLE PHARMA LTD, priority 2020, published 2023).
Like-named read-outs stand apart in the source and are kept apart here.

Legend:
[1] = cited from earlier work
[2] = test system: C57bl mice; experiment: Testosterone-induced alopecia model in mice, hair cover (Example 2); type: in vivo; settings: oral, 100 uL once daily; testosterone-injected mice
[3] = test system: C57bl mice; experiment: Testosterone-induced alopecia in mice, hair cover over 28 d (Example 3); type: in vivo; settings: oral once daily
Method: (§1) Hair on the backs of C57bl mice were shaved with electric clippers and subsequent application of ‘hair removal cream’ (Veet, Oxy Reckit Benckiser, Chartes, France). Twenty-four hours following hair removal, mice received daily subcutaneous injections of Testosterone, 1 mg/mouse, at the neck region. Twenty-four hours after the first Testosterone injection mice started receiving treatment as per Table 6 below. Topical formulations were applied onto the entire shaved back skin. The hair cover was analyzed by ImagJ software.

[4] = test system: DHT (dihydrotestosterone); experiment: Skin DHT expression at Day 28 (Example 3); type: in vivo, mice
Method: as §1

[5] = Blood concentration of dutasteride at Day 28 (Example 3); type: in vivo; settings: C57bl, mice, Oral, daily dose 5-10 ug/mouse, read-out: Blood conc (ng/ml) of dutasteride
[6] = Human, 0.5 mg PO, from the literature; cited from earlier work
[7] = drug substance listed in Table 16

O=C(OOC(=O)c1ccccc1)c1ccccc1 [Benzoyl peroxide]
logP [1, 7]: LogP 2.75

CC(C)(C)NC(=O)[C@H]1CC[C@H]2[C@@H]3CC[C@H]4NC(=O)C=C[C@]4(C)[C@H]3CC[C@]12C [Oral finasteride, finasteride]
% hair cover at 21 days [2]: 20%

C1=C/COCc2cc(ccc2OCCN2CCCC2)Nc2nccc(n2)-c2cccc(c2)COC/1 [Pacritinib]
logP [1, 7]: logP 4.58

O=C(Nc1c(Cl)cncc1Cl)c1ccc(OC(F)F)c(OCC2CC2)c1 [Roflumilast]
logP [1, 7]: logP 4.47

N#CC[C@H](C1CCCC1)n1cc(-c2ncnc3[nH]ccc23)cn1 [Ruxolitinib]
logP [1]: Ruxolitinib logP, 2.48

CCOC(=O)c1ccc(C#Cc2ccc3c(c2)C(C)(C)CCS3)nc1 [Tazarotene]
logP [1, 7]: logP 5.6

CC(=O)Oc1c(C)c(C)c2c(c1C)CCC(C)(CCC[C@H](C)CCC[C@H](C)CCCC(C)C)O2 (some centres unmarked) [Tocopherol acetate]
logP [1, 7]: acetate LogP 10.8

C[C@]12C=CC(=O)N[C@@H]1CC[C@@H]1[C@@H]2CC[C@]2(C)[C@@H](C(=O)Nc3cc(C(F)(F)F)ccc3C(F)(F)F)CC[C@@H]12 [dutasteride]
% hair cover at 21 days [2]: 30% | Group Mean Hair cover (%) ([3]; Study Day 0): 0.0% | Group Mean Hair cover (%) ([3]; Study Day 7): 0.0% | Group Mean Hair cover (%) ([3]; Study Day 14): 2.3% | Group Mean Hair cover (%) ([3]; Study Day 21): 5.2% | Group Mean Hair cover (%) ([3]; Study Day 28): 22.3% | DHT expression in the skin (in words) ([4]; mice): did not exhibit reduced concentrations of DHT in the skin | Mean DHT conc. (nmol/L)/group ([4]; skin, oral 5-10 ug/mouse x 1/d): 22.91 nmol/L | concentration at 28 day [5]: 39 ng/mL | Plasma Concentration of Dutasteride [6]: 23.60 ng/mL
